Measurements reported in ChEMBL document CHEMBL1201862, “PubChem BioAssay data set” (2004).
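Cultured in 96-well plates, cells were exposed to test compound for 48 hours across five concentrations. Abbreviation: GI50, concentration required for 50% inhibition of growth.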 Active and inactive are the calls of the source. Rule as the data show it: active = GI50 up to about 1.1 µM and inactive = higher.

What was measured:
Experiment in all cases: growth of human tumour cells (NCI), 48 h
A549 = system: A549
CAKI-1 = system: CAKI-1
DU-145 = system: DU-145
HCT-116 = system: HCT-116
HCT-15 = system: HCT-15
HL-60 = system: HL-60
MCF7 = system: MCF7
Malme-3M = system: Malme-3M
NCI-H23 = system: NCI-H23
OVCAR-5 = system: OVCAR-5
SF-295 = system: SF-295
SF-539 = system: SF-539
SK-MEL-28 = system: SK-MEL-28
SK-OV-3 = system: SK-OV-3
SNB-75 = system: SNB-75
SW-620 = system: SW-620
MDA-MB-435 = system: MDA-MB-435
RXF 393 = system: RXF 393
A498 = system: A498

SMILES	GI50 (A549)	GI50 (CAKI-1)	GI50 (DU-145)	GI50 (HCT-116)	GI50 (HCT-15) [µM]	GI50 (HL-60)	GI50 (MCF7)	GI50 (Malme-3M)	GI50 (NCI-H23)	GI50 (OVCAR-5)	GI50 (SF-295)	GI50 (SF-539)	GI50 (SK-MEL-28)	GI50 (SK-OV-3)	GI50 (SNB-75)	GI50 (SW-620)	GI50 (MDA-MB-435)	GI50 (RXF 393)	GI50 (A498)
C=C(C)C1CC(=O)C(C)=C(O)C1 (stereo not given)	> 100 µM (inactive)	> 100 µM (inactive)	> 100 µM (inactive)	> 100 µM (inactive)	> 100	> 100 µM (inactive)	> 100 µM (inactive)	> 100 µM (inactive)	> 100 µM (inactive)	> 100 µM (inactive)	> 100 µM (inactive)	> 100 µM (inactive)	> 100 µM (inactive)	> 100 µM (inactive)	> 100 µM (inactive)	> 100 µM (inactive)	–	–	–
NS(=O)(=O)c1ccc(NNC(=O)c2cccc3c(=O)c4ccccc4[nH]c23)cc1	> 100 µM (inactive)	> 100 µM (inactive)	> 100 µM (inactive)	52.1 µM (inactive)	62.8	35 µM (inactive)	34 µM (inactive)	78.3 µM (inactive)	> 100 µM (inactive)	> 100 µM (inactive)	91 µM (inactive)	> 100 µM (inactive)	> 100 µM (inactive)	> 100 µM (inactive)	> 100 µM (inactive)	72.6 µM (inactive)	88.1 µM (inactive)	60.4 µM (inactive)	–
COP(=O)(OC)/C(=C/c1cn(C(C)=O)c2ccccc12)NC(C)=O	> 100 µM (inactive)	40.9 µM (inactive)	> 100 µM (inactive)	26.4 µM (inactive)	18.1	13.1 µM (inactive)	8.91 µM (inactive)	–	37.7 µM (inactive)	> 100 µM (inactive)	37.2 µM (inactive)	–	36.4 µM (inactive)	> 100 µM (inactive)	49.2 µM (inactive)	18.5 µM (inactive)	4.62 µM (inactive)	–	16.6 µM (inactive)
Nc1nc2ccc(Sc3ccc4nc(N)[nH]c(=O)c4c3)cc2c(=O)[nH]1	> 100 µM (inactive)	> 100 µM (inactive)	> 100 µM (inactive)	> 100 µM (inactive)	> 100	> 100 µM (inactive)	> 100 µM (inactive)	> 100 µM (inactive)	> 100 µM (inactive)	> 100 µM (inactive)	59.2 µM (inactive)	> 100 µM (inactive)	> 100 µM (inactive)	> 100 µM (inactive)	> 100 µM (inactive)	> 100 µM (inactive)	> 100 µM (inactive)	> 100 µM (inactive)	–
O=C1OC(C2Cc3ccccc3C2=O)c2ccccc21 (stereo not given)	> 100 µM (inactive)	> 100 µM (inactive)	> 100 µM (inactive)	> 100 µM (inactive)	> 100	> 100 µM (inactive)	> 100 µM (inactive)	> 100 µM (inactive)	> 100 µM (inactive)	> 100 µM (inactive)	> 100 µM (inactive)	> 100 µM (inactive)	> 100 µM (inactive)	> 100 µM (inactive)	> 100 µM (inactive)	> 100 µM (inactive)	> 100 µM (inactive)	> 100 µM (inactive)	–
CCCN(CCC)c1c([N+](=O)[O-])cc(C(N)=O)cc1[N+](=O)[O-]	81.8 µM (inactive)	37.2 µM (inactive)	–	> 100 µM (inactive)	62.2	27.8 µM (inactive)	–	62.1 µM (inactive)	> 100 µM (inactive)	> 100 µM (inactive)	> 100 µM (inactive)	> 100 µM (inactive)	> 100 µM (inactive)	58.3 µM (inactive)	> 100 µM (inactive)	–	–	–	–
Cc1cc2nc3c(C#N)c(-c4ccccc4)cc(Nc4ccc(Cl)cc4)n3c2cc1C	> 100 µM (inactive)	> 100 µM (inactive)	–	> 100 µM (inactive)	> 100	–	> 100 µM (inactive)	> 100 µM (inactive)	> 100 µM (inactive)	> 100 µM (inactive)	> 100 µM (inactive)	> 100 µM (inactive)	> 100 µM (inactive)	> 100 µM (inactive)	> 100 µM (inactive)	> 100 µM (inactive)	> 100 µM (inactive)	> 100 µM (inactive)	> 100 µM (inactive)
O=C(NCC#CCO)C(F)(F)F	> 100 µM (inactive)	> 100 µM (inactive)	–	> 100 µM (inactive)	> 100	–	–	> 100 µM (inactive)	> 100 µM (inactive)	> 100 µM (inactive)	> 10 µM (inactive)	> 100 µM (inactive)	> 100 µM (inactive)	97.5 µM (inactive)	–	> 100 µM (inactive)	–	> 100 µM (inactive)	> 100 µM (inactive)
COc1cc(Br)c(CC2C3=C(CCN2C(=O)C2CCC2)CC(=O)CC3)cc1O (stereo not given)	61.7 µM (inactive)	–	49.4 µM (inactive)	30.3 µM (inactive)	18.7	5.9 µM (inactive)	–	28.3 µM (inactive)	18.2 µM (inactive)	> 100 µM (inactive)	33.5 µM (inactive)	46.2 µM (inactive)	46.7 µM (inactive)	56.9 µM (inactive)	26.8 µM (inactive)	34.6 µM (inactive)	17.1 µM (inactive)	–	–
